The record followed here is patent US7217730B2, “Method for the use of pyranoindole derivatives to treat infection with Hepatitis C virus” (Wyeth, priority 2002, dated 2007).

Read-outs that look alike come from different tables or passages of the source.

Test [1] concerns the target BB7 (RNA-dependent RNA polymerase hepatitis C virus protein sequence derived from HCV replicon) (Hepatitis C virus genotype 1b, UniProt Q9WMX2). The test is described as follows: Hepatitis C polymerase inhibition, BB7 sequence. Format: biochemical. The following applies: Table 1B.
For test [2], the target named is T1, NS5B from the BK strain (genotype 1b) (Hepatitis C virus genotype 1b, UniProt P26663).
T1 construct: NS5B from the BK strain (genotype 1b) is expressed in E. coli as a protein in which the 21 C-terminal amino acids are replaced; made in house; host or cells: E. coli
The test is described as follows: Hepatitis C polymerase inhibition, NS5B BK strain, 33P-GTP filter assay. Format: biochemical. The following applies: for IC50: NS5B BK strain; for inhibition at 20 µM: read-out: HCV pol % inh at 20 μM. In outline:
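Radiolabelled RNA synthesis was measured by filter capture and scintillation counting after EDTA stop. His-tagged, C-terminally truncated (Δ21) genotype 1b BK NS5B from E. coli, pre-exposed to compound for 15 min, copied a self-primed RNA template (~3 nM) with α-[33P]-GTP for 2 h at room temperature.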

[3] abbreviates: Table 1A, read-out: HCV pol BK IC50.

T1 sequence (P26663 2420-2989): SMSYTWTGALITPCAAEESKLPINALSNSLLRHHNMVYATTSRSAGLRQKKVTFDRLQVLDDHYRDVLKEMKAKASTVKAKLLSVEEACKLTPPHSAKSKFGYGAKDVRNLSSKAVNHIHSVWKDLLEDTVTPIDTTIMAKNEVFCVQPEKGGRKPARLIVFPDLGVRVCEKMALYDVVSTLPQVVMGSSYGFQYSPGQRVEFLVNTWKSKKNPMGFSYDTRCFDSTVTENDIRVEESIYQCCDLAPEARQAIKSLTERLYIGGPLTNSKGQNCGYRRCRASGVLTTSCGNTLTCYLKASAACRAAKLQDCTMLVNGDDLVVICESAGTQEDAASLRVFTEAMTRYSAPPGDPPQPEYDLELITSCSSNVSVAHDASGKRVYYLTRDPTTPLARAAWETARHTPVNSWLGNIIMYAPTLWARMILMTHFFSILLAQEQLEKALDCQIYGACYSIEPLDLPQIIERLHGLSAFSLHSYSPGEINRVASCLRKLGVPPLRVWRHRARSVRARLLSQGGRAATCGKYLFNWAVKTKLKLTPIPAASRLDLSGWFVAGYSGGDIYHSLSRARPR
BB7 (RNA-dependent RNA polymerase hepatitis C virus protein sequence derived from HCV replicon), sequence (Q9WMX2 2420-3010): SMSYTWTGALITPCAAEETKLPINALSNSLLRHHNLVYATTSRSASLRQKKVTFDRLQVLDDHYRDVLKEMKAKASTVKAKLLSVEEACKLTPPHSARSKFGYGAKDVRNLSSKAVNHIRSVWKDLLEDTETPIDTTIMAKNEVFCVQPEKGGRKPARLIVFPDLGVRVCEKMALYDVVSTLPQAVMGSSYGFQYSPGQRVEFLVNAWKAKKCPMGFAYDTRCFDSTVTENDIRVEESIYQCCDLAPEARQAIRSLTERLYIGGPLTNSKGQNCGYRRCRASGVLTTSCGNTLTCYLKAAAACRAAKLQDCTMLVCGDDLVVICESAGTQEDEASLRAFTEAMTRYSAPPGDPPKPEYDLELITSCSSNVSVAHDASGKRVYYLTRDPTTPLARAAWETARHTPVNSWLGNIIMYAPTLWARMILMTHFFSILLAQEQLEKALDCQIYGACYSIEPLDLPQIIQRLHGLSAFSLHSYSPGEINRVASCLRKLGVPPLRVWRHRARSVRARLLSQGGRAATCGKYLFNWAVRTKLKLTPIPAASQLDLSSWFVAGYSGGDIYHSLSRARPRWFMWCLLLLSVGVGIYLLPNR

As to `CCOCC1(CC(=O)O)OCCc2c1[nH]c1cc(Cl)c(Cl)cc21` (stereo not drawn) [Example 241, (6,7-dichloro-1-ethoxymethyl-1,3,4,9-tetrahydropyrano[3,4-b]indol-1-yl)acetic acid], in test [1], the IC50 is greater than 30 µM.

Turning to `O=C(O)CC1(c2ccc(C(=O)O)cc2)OCCc2c1[nH]c1ccc(Cl)c(Cl)c21` (stereo not drawn) [Example 113, 4-[1-(carboxymethyl)-5,6-dichloro-1,3,4,9-tetrahydropyrano[3,4-b]indol-1-yl]benzoic acid], the IC50 in test [2] (setting [3]) is 0.26 µM. Also, the inhibition at 20 µM in test [2] was determined as 35%.

Consider `Cc1cc(Cl)c2[nH]c3c(c2c1C#N)CCOC3(CC(=O)O)C(C)C` (stereo not drawn) [Example 184, (8-chloro-5-cyano-1-isopropyl-6-methyl-1,3,4,9-tetrahydropyrano[3,4-b]indol-1-yl)acetic acid], for which, in test [2] (Table 1A, 20 μM compound), the inhibition at 20 µM was 39%. Besides, in test [2] (setting [3]), the IC50 was greater than 5 µM.

On to `CCCC1(CC(=O)O)OCCc2c1[nH]c1cccc(-c3ccc(Cl)cc3Cl)c21` (stereo not drawn) [Example 35, [5-(2,4-dichlorophenyl)-1-propyl-1,3,4,9-tetrahydropyrano[3,4-b]indol-1-yl]acetic acid], for which the inhibition at 20 µM in test [2] (Table 1A, 20 μM compound) was 35%. Moreover, in test [2] (setting [3]), the IC50 is greater than 20 µM.

Turning to `CCCC1(CC(=O)O)OCCc2c1[nH]c1c(-c3cccc(Br)c3)cccc21` (stereo not drawn) [Example 96, [8-(3-bromophenyl)-1-propyl-1,3,4,9-tetrahydropyrano[3,4-b]indol-1-yl]acetic acid], the inhibition at 20 µM in test [2] (Table 1A, 20 μM compound) turned out to be 37%. In addition, the IC50 in test [2] (setting [3]) is greater than 20 µM.

On to `CCCC1(CC(=O)O)OCCc2c1[nH]c1c(-c3ccc(OC)cc3)cccc21` (stereo not drawn) [Example 91, [8-(4-methoxyphenyl)-1-propyl-1,3,4,9-tetrahydropyrano[3,4-b]indol-1-yl]acetic acid], for which the inhibition at 20 µM in test [2] (Table 1A, 20 μM compound) is less than 5%. Moreover, the IC50 in test [2] (setting [3]) is greater than 20 µM.

As for `CCCC1(CC(=O)O)OCCc2c1[nH]c1c(Cl)cc(C)c(Cl)c21` (stereo not drawn) [Example 216, (5,8-dichloro-6-methyl-1-propyl-1,3,4,9-tetrahydropyrano[3,4-b]indol-1-yl)acetic acid], the inhibition at 20 µM in test [2] (Table 1A, 20 μM compound) came out at 86%. Further, in test [2] (setting [3]), the IC50 turned out to be 0.26 µM.

On to `Cc1cc(F)c2[nH]c3c(c2c1C#N)CCOC3(CC(=O)O)C(C)C` (stereo not drawn) [Example 222, (5-cyano-8-fluoro-1-isopropyl-6-methyl-1,3,4,9-tetrahydropyrano[3,4-b]indol-1-yl)aceti acid], for which the inhibition at 20 µM in test [2] (Table 1A, 20 μM compound) came to 45%. Besides, the IC50 in test [2] (setting [3]) is greater than 5 µM.

For `CCC1(CC(=O)O)OCCc2c1[nH]c1c(F)cc(F)c(Br)c21` (stereo not drawn) [Example 189, (5-bromo-1-ethyl-6,8-difluoro-1,3,4,9-tetrahydropyrano[3,4-b]indol-1-yl)acetic acid], the inhibition at 20 µM in test [2] (Table 1A, 20 μM compound) is 74%. Besides, in test [2] (setting [3]), the IC50 was determined as 4.2 µM.

In the case of `CCCC1(CC(=O)O)OCCc2c1[nH]c1cccc(Cl)c21` (stereo not drawn) [Example 14, (5-Chloro-1-propyl-1,3,4,9-tetrahydropyrano[3,4-b]indol-1-yl)acetic acid], the inhibition at 20 µM in test [2] (Table 1A, 20 μM compound) came out at 75%. Moreover, the IC50 in test [2] (setting [3]) is 11 µM.

As to `O=C(O)CC1(c2ccccc2)OCCc2c1[nH]c1c(Cl)cccc21` (stereo not drawn) [Example 78, (8-chloro-1-phenyl-1,3,4,9-tetrahydropyrano[3,4-b]indol-1-yl)acetic acid], in test [2] (Table 1A, 20 μM compound), the inhibition at 20 µM was determined as 26%. In addition, in test [2] (setting [3]), the IC50 is greater than 20 µM.

As to `C=CCn1c2c(c3c(Cl)ccc(Cl)c31)CCOC2(CCC)CC(=O)O` (stereo not drawn) [Example 233, (9-allyl-5,8-dichloro-1-propyl-1,3,4,9-tetrahydropyrano[3,4-b]indol-1-yl)acetic acid], the IC50 in test [2] (setting [3]) was greater than 20 µM.

Regarding `COCC1(CC(=O)O)OCCc2c1[nH]c1c(Cl)ccc(C(F)(F)F)c21` (stereo not drawn) [Example 264, (8-chloro-1-methoxymethyl-5-trifluoromethyl-1,3,4,9-tetrahydropyrano[3,4-b]indol-1-yl)acetic acid], the IC50 in test [2] (Table 1B, read-out: BK IC50) is greater than 30 µM.

`CCCCC1(CC(=O)O)OCCc2c1[nH]c1c(Cl)cccc21` (stereo not drawn) [Example 76, (1-butyl-8-chloro-1,3,4,9-tetrahydropyrano[3,4-b]indol-1-yl)acetic acid]: the inhibition at 20 µM in test [2] (Table 1A, 20 μM compound) stood at 29%. The IC50 in test [2] (setting [3]) is greater than 20 µM.

With `O=C(O)CC1(c2ccc(C(=O)O)cc2)OCCc2c1[nH]c1c(Cl)ccc(Cl)c21` (stereo not drawn) [Example 57, 4-[1-(carboxymethyl)-5,8-dichloro-1,3,4,9-tetrahydropyrano[3,4-b]indol-1-yl]benzoic acid], in test [2] (Table 1A, 20 μM compound), the inhibition at 20 µM stood at 56%. Besides, the IC50 in test [2] (setting [3]) was determined as 3 µM.

Take `C/C=C/CCC1(CC(=O)O)OCCc2c1[nH]c1c(Br)cccc21` (stereo not drawn) [Example 85, {8-bromo-1-[(3E)-pent-3-enyl]-1,3,4,9-tetrahydropyrano[3,4-b]indol-1-yl}acetic acid]: in test [2] (Table 1A, 20 μM compound), the inhibition at 20 µM worked out at 18%. The IC50 in test [2] (setting [3]) was greater than 20 µM.

As for `Cc1ccc(F)c2c3c([nH]c12)C(C)(CC(=O)O)OCC3` (stereo not drawn) [Example 140, (5-fluoro-1,8-dimethyl-1,3,4,9-tetrahydropyrano[3,4-b]indol-1-yl)acetic acid], the inhibition at 20 µM in test [2] (Table 1A, 20 μM compound) was determined as 28%. Besides, in test [2] (setting [3]), the IC50 was greater than 20 µM.

Consider `O=C(O)CC1(c2ccccc2)OCCc2c1[nH]c1cccc(Cl)c21` (stereo not drawn) [Example 17, (5-chloro-1-phenyl-1,3,4,9-tetrahydropyrano[3,4-b]indol-1-yl)acetic acid], for which, in test [2] (Table 1A, 20 μM compound), the inhibition at 20 µM was less than 5%. The IC50 in test [2] (setting [3]) is greater than 20 µM.

Turning to `Cc1ccc(F)c2c3c([nH]c12)C(CC(=O)O)(C(C)C)OCC3` (stereo not drawn) [Example 143, (5-fluoro-1-isopropyl-8-methyl-1,3,4,9-tetrahydropyrano[3,4-b]indol-1-yl)acetic acid], the inhibition at 20 µM in test [2] (Table 1A, 20 μM compound) is 56%. In addition, the IC50 in test [2] (setting [3]) came to 16.5 µM.

`Cc1cc(F)c(Br)c2c3c([nH]c12)C(CC(=O)O)(C(C)C)OCC3` (stereo not drawn) [Example 202, (5-bromo-6-fluoro-1-isopropyl-8-methyl-1,3,4,9-tetrahydropyrano[3,4-b]indol-1-yl)acetic acid]: the inhibition at 20 µM in test [2] (Table 1A, 20 μM compound) stood at 82%. Also, the IC50 in test [2] (setting [3]) is 2.9 µM.

As to `C/C=C/CCC1(CC(=O)O)OCCc2c1[nH]c1c(Cl)cccc21` (stereo not drawn) [Example 77, {8-chloro-1-[(3E)-pent-3-enyl]-1,3,4,9-tetrahydropyrano[3,4-b]indol-1-yl}acetic acid], in test [2] (Table 1A, 20 μM compound), the inhibition at 20 µM is 16%. Besides, the IC50 in test [2] (setting [3]) was greater than 20 µM.

With `CCCC1(CC(=O)O)OCC(C)(C)c2c1[nH]c1c(Cl)ccc(Cl)c21` (stereo not drawn) [Example 230, (5,8-dichloro-4,4-dimethyl-1-propyl-1,3,4,9-tetrahydropyrano[3,4-b]indol-1-yl)acetic acid], the IC50 in test [2] (setting [3]) came to 3.1 µM.

As for `CCCC1(CC(=O)O)OCCc2c1[nH]c1cccc(-c3ccc4ccccc4c3)c21` (stereo not drawn) [Example 38, [5-(2-naphthyl)-1-propyl-1,3,4,9-tetrahydropyrano[3,4-b]indol-1-yl]acetic acid], the inhibition at 20 µM in test [2] (Table 1A, 20 μM compound) amounted to 11%. Besides, the IC50 in test [2] (setting [3]) is greater than 20 µM.

With `CCCCC1(CC(=O)O)OCCc2c1[nH]c1c(Cl)cc(C)c(C#N)c21` (stereo not drawn) [Example 185, (1-butyl-8-chloro-5-cyano-6-methyl-1,3,4,9-tetrahydropyrano[3,4-b]indol-1-yl)acetic acid], in test [2] (Table 1A, 20 μM compound), the inhibition at 20 µM was 69%. Besides, the IC50 in test [2] (setting [3]) came out at 4 µM.

As for `CCCCC1(CC(=O)O)OCCc2c1[nH]c1c(Br)cccc21` (stereo not drawn) [Example 84, (8-bromo-1-butyl-1,3,4,9-tetrahydropyrano[3,4-b]indol-1-yl)acetic acid], the inhibition at 20 µM in test [2] (Table 1A, 20 μM compound) was 46%. The IC50 in test [2] (setting [3]) was determined as 19.7 µM.

In the case of `CCCC1(CC(=O)O)OCCc2c1[nH]c1c(F)ccc(-c3ccc(C)cc3)c21` (stereo not drawn) [Example 148, [8-fluoro-5-(4-methylphenyl)-1-propyl-1,3,4,9-tetrahydropyrano[3,4-b]indol-1-yl]acetic acid], in test [2] (Table 1A, 20 μM compound), the inhibition at 20 µM came to 47%. Further, the IC50 in test [2] (setting [3]) was greater than 20 µM.

Regarding `O=C(O)CC1(c2ccc([N+](=O)[O-])cc2)OCCc2c1[nH]c1cccc(Br)c21` (stereo not drawn) [Example 28, [5-bromo-1-(4-nitrophenyl)-1,3,4,9-tetrahydropyrano[3,4-b]indol-1-yl]acetic acid], in test [2] (Table 1A, 20 μM compound), the inhibition at 20 µM was less than 5%. In addition, the half-inhibitory concentration (IC50) in test [2] (setting [3]) is greater than 20 µM.

As to `Cc1cc(F)c2[nH]c3c(c2c1C#N)CCOC3(CC(=O)O)c1ccc(C(=O)O)cc1` (stereo not drawn) [Example 172, 4-[1-(carboxymethyl)-5-cyano-8-fluoro-6-methyl-1,3,4,9-tetrahydropyrano[3,4-b]indol-1-yl]benzoic acid], the inhibition at 20 µM in test [2] (Table 1A, 20 μM compound) is 74%. Also, the IC50 in test [2] (setting [3]) is 1.7 µM.

For `CCCC1(CC(=O)O)OCCc2c1[nH]c1c(C#N)cccc21` (stereo not drawn) [Example 98, (8-cyano-1-propyl-1,3,4,9-tetrahydropyrano[3,4-b]indol-1-yl)acetic acid], the inhibition at 20 µM in test [2] (Table 1A, 20 μM compound) came to 44%. Also, the IC50 in test [2] (setting [3]) was greater than 20 µM.

Take “(5-cyano-8-fluoro-6-methyl-1-propyl-1,3,4,9-tetrahydropyrano[3,4-b]indol-1-yl)acetic acid [Example 221]”: in test [2] (Table 1A, 20 μM compound), the “HCV pol % inh at 20 μM” value is on record as 81%. Moreover, in test [2] (setting [3]), the IC50 is 0.43 µM.

Take `CCC1(CC(=O)O)OCCc2c1[nH]c1c(F)cc(C)c(C#N)c21` (stereo not drawn) [Example 220, (5-cyano-1-ethyl-8-fluoro-6-methyl-1,3,4,9-tetrahydropyrano[3,4-b]indol-1-yl)acetic acid]: the inhibition at 20 µM in test [2] (Table 1A, 20 μM compound) came out at 43%. For the same molecule, the IC50 in test [2] (setting [3]) is greater than 5 µM.

In the case of `O=C(O)CC1(c2ccoc2)OCCc2c1[nH]c1c(Cl)cc(Cl)c(Cl)c21` (stereo not drawn) [Example 162, [5,6,8-trichloro-1-(3-furyl)-1,3,4,9-tetrahydropyrano[3,4-b]indol-1-yl]acetic acid], in test [2] (Table 1A, 20 μM compound), the inhibition at 20 µM worked out at 73%. For the same molecule, the IC50 in test [2] (setting [3]) came out at 2.4 µM.
